Assay results published in US9980943B2, “Methods of treating muscular dystrophy” (BOARD OF REGENTS OF THE NEVADA SYSTEM OF HIGHER EDUCATION, …, priority 2013, dated 2018).

Tests used:
Assay type in all cases: cell-based, mouse
[1] = test system: α7 integrin (LacZ reporter in α7βgal+/− myoblasts); test: Myoblast α7+/LacZ integrin FDG assay (Burkin assay in myoblasts, 96-well); conditions: for Burkin Assay in Myoblasts, value relative to DMSO: SU9516 analogs, 96-well, N=3-6
[2] = test system: β-galactosidase in CMV-LacZ C2C12 myotubes; test: CMV-LacZ secondary screen in C2C12 myotubes (β-Gal stabilizing assay); conditions: SU9516 analogs, C2C12 CMV-LacZ, N=2
Summary of the method: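 First, C2C12 myoblasts were transfected with a linearized CMV-LACZ vector and clonal lines selected by FDG β-gal assay. Then cells were exposed to compounds at 0.5, 1, 5, 10, 20 and 40 μM in 96-well format, two replicates each, and β-gal measured.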

[3] = test system: β-galactosidase in CMV-LacZ C2C12 myoblasts; test: CMV-LacZ secondary screen in C2C12 myoblasts (β-Gal stabilizing assay); conditions: SU9516 analogs, C2C12 CMV-LacZ, N=2
Summary of the method: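 Stable CMV-LacZ C2C12 clone; six-point curve 0.5–40 μM; duplicates.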

[4] = test system: α7 integrin (LacZ reporter in α7+/LacZ myotubes); test: Myotube α7 integrin FDG assay (Burkin assay in myotubes, 96-well); conditions: SU9516 analogs, 96-well, N=3-6
[5] = Mus musculus, Myoblast, 48 h, read-out: Burkin Assay in Myoblasts, value relative to DMSO

In the case of `Cc1ccc2c(c1)/C(=C/c1ccccc1C)C(=O)N2` [MLS001202402-01], the “Burkin Assay in Myoblasts, value relative to DMSO” value ([1]; 0.5 uM) is reported as 1.051, the “Burkin Assay in Myoblasts, value relative to DMSO” value ([1]; 1 uM) is reported as 0.9034 and the “Burkin Assay in Myoblasts, value relative to DMSO” value ([1]; 5 uM) is reported as 0.9255. For the same molecule, the “Burkin Assay in Myoblasts, value relative to DMSO” value ([1]; 10 uM) was 1.08, the “Burkin Assay in Myoblasts, value relative to DMSO” value ([1]; 20 uM) was 0.6481 and the “Burkin Assay in Myoblasts, value relative to DMSO” value ([1]; 40 uM) was 0.325. For the same molecule, the “CMV-LACZ in Myotubes, value relative to DMSO” value ([2]; 0.5 uM) was 0.9200, the “CMV-LACZ in Myotubes, value relative to DMSO” value ([2]; 1 uM) was 0.8695 and the “CMV-LACZ in Myotubes, value relative to DMSO” value ([2]; 5 uM) was 0.9237. For the same molecule, the “CMV-LACZ in Myotubes, value relative to DMSO” value ([2]; 10 uM) was 0.8015, the “CMV-LACZ in Myotubes, value relative to DMSO” value ([2]; 20 uM) was 0.8847 and the “CMV-LACZ in Myotubes, value relative to DMSO” value ([2]; 40 uM) was 0.8129. The “CMV-LACZ in Myoblasts, value relative to DMSO” value ([3]; 0.5 uM) was 1.0546, the “CMV-LACZ in Myoblasts, value relative to DMSO” value ([3]; 1 uM) was 1.0106 and the “CMV-LACZ in Myoblasts, value relative to DMSO” value ([3]; 5 uM) was 0.8771. For the same molecule, the “CMV-LACZ in Myoblasts, value relative to DMSO” value ([3]; 10 uM) was 0.7598, the “CMV-LACZ in Myoblasts, value relative to DMSO” value ([3]; 20 uM) was 0.7204 and the “CMV-LACZ in Myoblasts, value relative to DMSO” value ([3]; 40 uM) was 0.4819. The “Burkin Assay in Myotubes, value relative to DMSO” value ([4]; 0.5 uM) was 0.9628, the “Burkin Assay in Myotubes, value relative to DMSO” value ([4]; 1 uM) was 0.8962 and the “Burkin Assay in Myotubes, value relative to DMSO” value ([4]; 5 uM) was 0.9629. The “Burkin Assay in Myotubes, value relative to DMSO” value ([4]; 10 uM) was 1.0295, the “Burkin Assay in Myotubes, value relative to DMSO” value ([4]; 20 uM) was 0.5907 and the “Burkin Assay in Myotubes, value relative to DMSO” value ([4]; 40 uM) was 0.3717.

`O=C1Nc2ccccc2/C1=C/c1ccccc1Cl` [MLS001202425-01] was tested, and the “Burkin Assay in Myoblasts, value relative to DMSO” value ([1]; 0.5 uM) was 1.2214, the “Burkin Assay in Myoblasts, value relative to DMSO” value ([1]; 1 uM) was 1.219 and the “Burkin Assay in Myoblasts, value relative to DMSO” value ([1]; 5 uM) was 0.9673. The “Burkin Assay in Myoblasts, value relative to DMSO” value ([1]; 10 uM) was 0.8645, the “Burkin Assay in Myoblasts, value relative to DMSO” value ([1]; 20 uM) was 0.7465 and the “Burkin Assay in Myoblasts, value relative to DMSO” value ([1]; 40 uM) was 0.3445. The “CMV-LACZ in Myotubes, value relative to DMSO” value ([2]; 0.5 uM) was 0.8793, the “CMV-LACZ in Myotubes, value relative to DMSO” value ([2]; 1 uM) was 1.0185 and the “CMV-LACZ in Myotubes, value relative to DMSO” value ([2]; 5 uM) was 1.1496. For the same molecule, the “CMV-LACZ in Myotubes, value relative to DMSO” value ([2]; 10 uM) was 1.0423, the “CMV-LACZ in Myotubes, value relative to DMSO” value ([2]; 20 uM) was 0.9918 and the “CMV-LACZ in Myotubes, value relative to DMSO” value ([2]; 40 uM) was 0.9976. The “CMV-LACZ in Myoblasts, value relative to DMSO” value ([3]; 0.5 uM) was 1.0625, the “CMV-LACZ in Myoblasts, value relative to DMSO” value ([3]; 1 uM) was 1.0919 and the “CMV-LACZ in Myoblasts, value relative to DMSO” value ([3]; 5 uM) was 0.8675. The “CMV-LACZ in Myoblasts, value relative to DMSO” value ([3]; 10 uM) was 1.1386, the “CMV-LACZ in Myoblasts, value relative to DMSO” value ([3]; 20 uM) was 0.9081 and the “CMV-LACZ in Myoblasts, value relative to DMSO” value ([3]; 40 uM) was 0.6233. For the same molecule, the “Burkin Assay in Myotubes, value relative to DMSO” value ([4]; 0.5 uM) was 1.148, the “Burkin Assay in Myotubes, value relative to DMSO” value ([4]; 1 uM) was 1.205 and the “Burkin Assay in Myotubes, value relative to DMSO” value ([4]; 5 uM) was 0.9499. The “Burkin Assay in Myotubes, value relative to DMSO” value ([4]; 10 uM) was 0.8033, the “Burkin Assay in Myotubes, value relative to DMSO” value ([4]; 20 uM) was 0.5178 and the “Burkin Assay in Myotubes, value relative to DMSO” value ([4]; 40 uM) was 0.354.

With `COc1ccccc1/C=C1\C(=O)Nc2ccccc21` [MLS001202634-01] the fold induction at 0.5 µM [1, 5] was 1.21, the fold induction at 1 µM [1, 5] was 1.1 and the fold induction at 5 µM [1, 5] was 1.14. The fold induction at 10 µM [1, 5] was 1.31, the fold induction at 20 µM [1, 5] was 0.994 and the fold induction at 40 µM [1, 5] was 0.931. The “CMV-LACZ in Myotubes, value relative to DMSO” value ([2]; 0.5 uM) was 0.9582, the “CMV-LACZ in Myotubes, value relative to DMSO” value ([2]; 1 uM) was 1.0073 and the “CMV-LACZ in Myotubes, value relative to DMSO” value ([2]; 5 uM) was 1.2348. For the same molecule, the “CMV-LACZ in Myotubes, value relative to DMSO” value ([2]; 10 uM) was 0.9661, the “CMV-LACZ in Myotubes, value relative to DMSO” value ([2]; 20 uM) was 0.9750 and the “CMV-LACZ in Myotubes, value relative to DMSO” value ([2]; 40 uM) was 0.9340. For the same molecule, the “CMV-LACZ in Myoblasts, value relative to DMSO” value ([3]; 0.5 uM) was 1.0500, the “CMV-LACZ in Myoblasts, value relative to DMSO” value ([3]; 1 uM) was 1.0071 and the “CMV-LACZ in Myoblasts, value relative to DMSO” value ([3]; 5 uM) was 1.1287. For the same molecule, the “CMV-LACZ in Myoblasts, value relative to DMSO” value ([3]; 10 uM) was 1.0990, the “CMV-LACZ in Myoblasts, value relative to DMSO” value ([3]; 20 uM) was 1.0817 and the “CMV-LACZ in Myoblasts, value relative to DMSO” value ([3]; 40 uM) was 0.9217. For the same molecule, the “Burkin Assay in Myotubes, value relative to DMSO” value ([4]; 0.5 uM) was 0.9928, the “Burkin Assay in Myotubes, value relative to DMSO” value ([4]; 1 uM) was 1.1156 and the “Burkin Assay in Myotubes, value relative to DMSO” value ([4]; 5 uM) was 0.9675. For the same molecule, the “Burkin Assay in Myotubes, value relative to DMSO” value ([4]; 10 uM) was 1.139, the “Burkin Assay in Myotubes, value relative to DMSO” value ([4]; 20 uM) was 0.9473 and the “Burkin Assay in Myotubes, value relative to DMSO” value ([4]; 40 uM) was 1.289.
